# Patent US9783537B2, “3-(4-ethylnylphenyl) pyridopyrimidinone compounds and process for preparation thereof useful as potential anticancer agents” (Council of Scientific & Industrial Research, priority 2013, dated 2017)
# Where two headings read alike, the source gives them in different places.
# How the values were obtained:
# HL-60(TB) = experiment: SRB 48 h growth assay, Leukemia HL-60(TB); format: cell-based, human
# K-562 = experiment: SRB 48 h growth assay, Leukemia K-562; format: cell-based, human
# RPMI-8226 = experiment: SRB 48 h growth assay, Leukemia RPMI-8226; format: cell-based, human; conditions: RPMI-8226, Leukemia
# HOP-62 = experiment: SRB 48 h growth assay, Non-small Cell Lung HOP-62; format: cell-based, human; conditions: HOP-62, Non-small Cell Lung
# NCI-H522 = experiment: SRB 48 h growth assay, Non-small Cell Lung NCI-H522; format: cell-based, human
# KM12 = experiment: SRB 48 h growth assay, Colon KM12; format: cell-based, human
# SW-620 = experiment: SRB 48 h growth assay, Colon SW-620; format: cell-based, human; conditions: SW-620, Colon
# SNB-19 = experiment: SRB 48 h growth assay, CNS SNB-19; format: cell-based, human; conditions: SNB-19, CNS
# LOX IMVI = experiment: SRB 48 h growth assay, Melanoma LOX IMVI; format: cell-based, human
# M14 = experiment: SRB 48 h growth assay, Melanoma M14; format: cell-based, human
# SK-MEL-5 = experiment: SRB 48 h growth assay, Melanoma SK-MEL-5; format: cell-based, human; conditions: SK-MEL-5, Melanoma
# OVCAR-4 = experiment: SRB 48 h growth assay, Ovarian OVCAR-4; format: cell-based, human; conditions: OVCAR-4, Ovarian
# OVCAR-8 = experiment: SRB 48 h growth assay, Ovarian OVCAR-8; format: cell-based, human; conditions: OVCAR-8, Ovarian
# SK-OV-3 = experiment: SRB 48 h growth assay, Ovarian SK-OV-3; format: cell-based, human; conditions: SK-OV-3, Ovarian
# 786-0 = experiment: SRB 48 h growth assay, Renal 786-0; format: cell-based, human; conditions: 786-0, Renal
# RXF393 = experiment: SRB 48 h growth assay, Renal RXF393; format: cell-based, human
# TK-10 = experiment: SRB 48 h growth assay, Renal TK-10; format: cell-based, human; conditions: TK-10, Renal
# MCF7 = experiment: SRB 48 h growth assay, Breast MCF7; format: cell-based, human
# MDA-MB-231/ATCC = experiment: SRB 48 h growth assay, Breast MDA-MB-231/ATCC; format: cell-based, human
# HS578T = experiment: SRB 48 h growth assay, Breast HS578T; format: cell-based, human
# BT-549 = experiment: SRB 48 h growth assay, Breast BT-549; format: cell-based, human; conditions: BT-549, Breast
# MDA-MB-468 = experiment: SRB 48 h growth assay, Breast MDA-MB-468; format: cell-based, human; conditions: MDA-MB-468, Breast
# [1] = in vitro anticancer activity, non-small cell lung panel; format: cell-based; conditions: Homo sapiens; nine non-small cell lung cancer cell lines, exposure at least 48 h; read-out: GI50, range over panel
# [2] = test system: seven colon cancer cell line (COLO 205, HCC-2998, HCT-116, HCT-15, HT29, KM12 and SW-620); experiment: in vitro anticancer activity, colon panel; format: cell-based; conditions: Homo sapiens; seven colon cancer cell lines, exposure at least 48 h; read-out: GI50, range over panel
# [3] = in vitro anticancer activity, melanoma panel; format: cell-based; conditions: Homo sapiens; nine melanoma cell lines, exposure at least 48 h; read-out: GI50, range over panel
# [4] = test system: seven ovarian cancer cell lines (IGROV1, OVCAR-3, OVCAR-4, OVCAR-5, OVCAR-8, NCI/ADR-RES and SK-OV-3); experiment: in vitro anticancer activity, ovarian panel; format: cell-based; conditions: Homo sapiens, exposure at least 48 h, read-out: GI50, range over panel
# [5] = Homo sapiens, read-out: Growth Inhibition GI50
# [6] = Homo sapiens, read-out: Log10 GI50 (converted)
# [7] = Homo sapiens, read-out: Log10 LC50 (converted)
structure (smiles),measurement,setting,value
"C#Cc1ccc(-n2c(/C=C/c3ccc(O)cc3)nc3ncccc3c2=O)cc1 [4b, (E)-3-(4-Ethynylphenyl)-2-(4-hydroxystyryl)pyrido[2,3-d]pyrimidin-4(3H)-one]",Log10 TGI50,HL-60(TB),−4.52
same,GI50,HL-60(TB); [5],3.2 µM
same,GI50,HL-60(TB); [6],3.24 µM
same,CC50,HL-60(TB); [7],> 100 µM
same,GI50,"K-562; Homo sapiens, K562, K-562, Leukemia, read-out: Growth Inhibition GI50",4.33 µM
same,GI50,"K-562; Homo sapiens, K562, K-562, Leukemia, read-out: Log10 GI50 (converted)",4.37 µM
same,CC50,"K-562; Homo sapiens, K562, K-562, Leukemia, read-out: Log10 LC50 (converted)",> 100 µM
same,Log10 TGI50,"K-562; K-562, Leukemia",>−4.00
same,GI50,RPMI-8226; [5],3.41 µM
same,GI50,RPMI-8226; [6],3.39 µM
same,CC50,RPMI-8226; [7],> 100 µM
same,Log10 TGI50,RPMI-8226,>−4.00
same,Log10 TGI50,HOP-62,−4.25
same,GI50,HOP-62; [5],5.66 µM
same,GI50,HOP-62; [6],5.62 µM
same,CC50,HOP-62; [7],> 100 µM
same,Log10 TGI50,NCI-H522,−5.22
same,GI50,NCI-H522; [5],2 µM
same,GI50,NCI-H522; [6],2 µM
same,CC50,NCI-H522; [7],> 100 µM
same,Log10 TGI50,KM12,−4.22
same,GI50,KM12; [5],3.81 µM
same,GI50,KM12; [6],3.8 µM
same,CC50,KM12; [7],> 100 µM
same,GI50,SW-620; [5],3.55 µM
same,GI50,SW-620; [6],3.55 µM
same,CC50,SW-620; [7],> 100 µM
same,Log10 TGI50,SW-620,>−4.00
same,GI50,SNB-19; [5],6.26 µM
same,GI50,SNB-19; [6],6.31 µM
same,CC50,SNB-19; [7],> 100 µM
same,Log10 TGI50,SNB-19,>−4.00
same,Log10 TGI50,LOX IMVI,>−4.00
same,GI50,LOX IMVI; [5],5.35 µM
same,GI50,LOX IMVI; [6],5.37 µM
same,CC50,LOX IMVI; [7],> 100 µM
same,Log10 TGI50,M14,−5.09
same,GI50,M14; [5],2.7 µM
same,GI50,M14; [6],2.69 µM
same,CC50,M14; [7],> 100 µM
same,GI50,SK-MEL-5; [5],2.24 µM
same,GI50,SK-MEL-5; [6],2.24 µM
same,CC50,SK-MEL-5; [7],> 100 µM
same,Log10 TGI50,SK-MEL-5,−5.13
same,GI50,OVCAR-4; [5],22.8 µM
same,GI50,OVCAR-4; [6],1.58 µM
same,CC50,OVCAR-4; [7],> 100 µM
same,Log10 TGI50,OVCAR-4,>−4.00
same,GI50,OVCAR-8; [5],4.39 µM
same,GI50,OVCAR-8; [6],4.37 µM
same,CC50,OVCAR-8; [7],> 100 µM
same,Log10 TGI50,OVCAR-8,−4.33
same,GI50,SK-OV-3; [5],3.38 µM
same,GI50,SK-OV-3; [6],3.39 µM
same,CC50,SK-OV-3; [7],> 100 µM
same,Log10 TGI50,SK-OV-3,−4.54
same,Log10 TGI50,786-0,>−4.30
same,GI50,786-0; [5],4.88 µM
same,GI50,786-0; [6],4.9 µM
same,CC50,786-0; [7],> 100 µM
same,Log10 TGI50,RXF393,−5.36
same,GI50,"RXF393; Homo sapiens, RXF 393, read-out: Growth Inhibition GI50",1.48 µM
same,GI50,"RXF393; Homo sapiens, RXF 393, read-out: Log10 GI50 (converted)",1.48 µM
same,CC50,"RXF393; Homo sapiens, RXF 393, read-out: Log10 LC50 (converted)",> 72.4 µM
same,GI50,TK-10; [5],8.78 µM
same,GI50,TK-10; [6],8.71 µM
same,CC50,TK-10; [7],> 100 µM
same,Log10 TGI50,TK-10,−4.16
same,Log10 TGI50,MCF7,>−4.00
same,GI50,MCF7; [5],3.04 µM
same,GI50,MCF7; [6],3.02 µM
same,CC50,MCF7; [7],> 100 µM
same,Log10 TGI50,MDA-MB-231/ATCC,>−4.00
same,GI50,MDA-MB-231/ATCC; [5],11.4 µM
same,GI50,MDA-MB-231/ATCC; [6],11.5 µM
same,CC50,MDA-MB-231/ATCC; [7],> 100 µM
same,Log10 TGI50,HS578T,−4.52
same,GI50,"HS578T; Homo sapiens, Hs-578T, read-out: Growth Inhibition GI50",3.24 µM
same,GI50,"HS578T; Homo sapiens, Hs-578T, read-out: Log10 GI50 (converted)",3.24 µM
same,CC50,"HS578T; Homo sapiens, Hs-578T, read-out: Log10 LC50 (converted)",> 100 µM
same,Log10 TGI50,BT-549,−4.06
same,GI50,BT-549; [5],7.51 µM
same,GI50,BT-549; [6],7.59 µM
same,CC50,BT-549; [7],> 100 µM
same,GI50,MDA-MB-468; [5],2.31 µM
same,GI50,MDA-MB-468; [6],2.29 µM
same,CC50,MDA-MB-468; [7],> 100 µM
same,Log10 TGI50,MDA-MB-468,−5.15
same,GI50,[1],2.31 to 17.3 µM
same,GI50,[2],3.19 to 27.5 µM
same,GI50,[3],1.78 to 34.6 µM
same,GI50,[4],2.33 to 9.67 µM
